Patent publication US7687511B2, “Substituted dihydropyrimidines, dihydropyrimidones and dihydropyrimidinethiones as calcium channel blockers” (priority 2002, dated 2010)

melting point	Structure (SMILES)
88 to 90 °C	CCCCCCCCCCCCCCCc1cccc(OC(C)C)c1C1C(C(=O)OC(C)C)=C(C)NC(=O)N1C(=O)OCC (stereo not drawn) [PPK-38, 3,6-dihydro-4-methyl-6-[2-isopropoxy-6-pentadecylphenyl]-2-oxo-1,5-(2H)-pyrimidinedicarboxylic acid 1-ethyl 5-isopropyl diester]
91 to 93 °C	CCCCCCCCCCCCCCCc1cccc(OC)c1C1NC(=O)NC(C)=C1C(=O)OCC (stereo not drawn) [PPK-22, 5-ethoxycarbonyl-4-(2-methoxy-6-pentadecylphenyl)-6-methyl-3,4-dihydropyrimidin-2(1H)-one]
100 °C	CCCCCCCCCCCCCCCc1cccc(OC)c1C1C(C(=O)OC(C)C)=C(C)NC(=O)N1C(=O)OCC (stereo not drawn) [PPK-32, 3,6-dihydro-4-methyl-6-[2-methoxy-6-pentadecylphenyl]-2-oxo-1,5-(2H)-pyrimidinedicarboxylic acid 1-ethyl 5-isopropyl diester]
103 °C	CCCCCCCCCCCCCCCc1cccc(OCC)c1C1C(C(=O)OC)=C(C)NC(=O)N1C(=O)OCC (stereo not drawn) [PPK-33, 3,6-dihydro-4-methyl-6-[2-ethoxy-6-pentadecylphenyl]-2-oxo-1,5-(2H)-pyrimidinedicarboxylic acid 1-ethyl 5-methyl diester]
109 to 110 °C	CCCCCCCCCCCCCCCc1cccc(OC)c1C1C(C(=O)OCC)=C(C)NC(=O)N1C(=O)OCC (stereo not drawn) [PPK-31, 3,6-dihydro-4-methyl-6-[2-methoxy-6-pentadecylphenyl]-2-oxo-1,5-(2H)-pyrimidinedicarboxylic acid bis(ethyl ester)]
120 to 121 °C	CCCCCCCCCCCCCCCc1cccc(OC(C)C)c1C1C(C(=O)OC)=C(C)NC(=O)N1C(=O)OCC (stereo not drawn) [PPK-36, 3,6-dihydro-4-methyl-6-[2-isopropoxy-6-pentadecylphenyl]-2-oxo-1,5-(2H)-pyrimidinedicarboxylic acid 1-ethyl 5-methyl diester]
90 to 92 °C	CCCCCCCCCCCCCCCc1cccc(OC(C)C)c1C1C(C(=O)OCC)=C(C)NC(=O)N1C(=O)OCC (stereo not drawn) [PPK-37, 3,6-dihydro-4-methyl-6-[2-isopropoxy-6-pentadecylphenyl]-2-oxo-1,5-(2H)-pyrimidinedicarboxylic acid 1,5-diethyl diester]
127 to 129 °C	CCCCCCCCCCCCCCCc1cccc(OCC)c1C1NC(=O)NC(C)=C1C(=O)OC (stereo not drawn) [PPK-23, 5-methoxycarbonyl-4-(2-ethoxy-6-pentadecylphenyl)-6-methyl-3,4-dihydropyrimidin-2(1H)-one]
99 to 100 °C	CCCCCCCCCCCCCCCc1cccc(OCC)c1C1NC(=O)NC(C)=C1C(=O)OCC (stereo not drawn) [PPK-25, 5-ethoxycarbonyl-4-(2-ethoxy-6-pentadecylphenyl)-6-methyl-3,4-dihydropyrimidin-2(1H)-one]
112 °C	CCCCCCCCCCCCCCCc1cccc(OCC)c1C1C(C(=O)OCC)=C(C)NC(=O)N1C(=O)OCC (stereo not drawn) [PPK-34, 3,6-dihydro-4-methyl-6-[2-ethoxy-6-pentadecylphenyl]-2-oxo-1,5-(2H)-pyrimidinedicarboxylic acid 1,5-diethyl diester]
101 to 102 °C	CCCCCCCCCCCCCCCc1cccc(OC)c1C1NC(=O)NC(C)=C1C(=O)OC (stereo not drawn) [PPK-24, 5-methoxycarbonyl-4-(2-methoxy-6-pentadecylphenyl)-6-methyl-3,4-dihydropyrimidin-2(1H)-one]
121 to 122 °C	CCCCCCCCCCCCCCCc1cccc(OC)c1C1C(C(=O)OC)=C(C)NC(=O)N1C(=O)OCC (stereo not drawn) [PPK-30, 3,6-dihydro-4-methyl-6-[2-methoxy-6-pentadecylphenyl]-2-oxo-1,5-(2H)-pyrimidinedicarboxylic acid 1-ethyl 5-methyl diester]
